Measurements taken from the supplement of paper PMC8617591.

What was measured:
[1] = test system: Mycobacterium tuberculosis Erdman (autoluminescent); assay: AUC25, normalised area under dose response up to IC25 (fraction (0-1)); higher = more potent at low dose
Procedure: (§1)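 DiaMOND equipotent two-drug combination dose responses against autoluminescent M. tuberculosis Erdman in 8 in vitro models. Read-out is OD600, or luminescence for the intracellular and dormancy models, normalised to untreated wells. Hill-fit Einf, AUC25 and GRinf are potency metrics; FIC50 and FIC90 are Loewe-additivity fractional inhibitory concentrations, given as log2 (negative = synergy). Replicates are averaged.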

[2] = test system: Mycobacterium tuberculosis Erdman (autoluminescent); assay: Einf, fitted maximum growth inhibition of combination (fraction); higher = stronger maximal inhibition
Procedure: as §1

[3] = test system: Mycobacterium tuberculosis Erdman (autoluminescent); assay: FIC90 (Loewe) at 90% inhibition (log2); higher = more antagonistic
Procedure: as §1

[4] = test system: Mycobacterium tuberculosis Erdman (autoluminescent); assay: GRinf, maximum normalised growth rate inhibition (unitless (-1 to 1)); higher = less effect (negative = killing)
Procedure: as §1

[5] = test system: Mycobacterium tuberculosis Erdman (autoluminescent); assay: FIC50 (Loewe) at 50% inhibition (log2); higher = more antagonistic
Procedure: as §1

[6] = in vitro model: acidic pH 5.7, time point: constant (~7 days, model-specific)
[7] = in vitro model: acidic pH 5.7, time point: terminal (~4-5 doublings, model-specific)
[8] = in vitro model: butyrate, time point: constant (~7 days, model-specific)
[9] = in vitro model: butyrate, time point: terminal (~4-5 doublings, model-specific)
[10] = in vitro model: cholesterol 0.05 mM, time point: constant (~7 days, model-specific)
[11] = in vitro model: cholesterol 0.05 mM, time point: terminal (~4-5 doublings, model-specific)
[12] = in vitro model: cholesterol-high 0.2 mM, time point: constant (~7 days, model-specific)
[13] = in vitro model: cholesterol-high 0.2 mM, time point: terminal (~4-5 doublings, model-specific)
[14] = in vitro model: dormancy (butyrate + nitrate, low O2), time point: constant (~7 days, model-specific)
[15] = in vitro model: dormancy (butyrate + nitrate, low O2), time point: terminal (~4-5 doublings, model-specific)
[16] = in vitro model: standard 7H9 glycerol, time point: constant = terminal
[17] = in vitro model: valerate, time point: constant (~7 days, model-specific)
[18] = in vitro model: valerate, time point: terminal (~4-5 doublings, model-specific)
[19] = in vitro model: intracellular J774, time point: constant = terminal

In the case of CC(=O)NC[C@H]1CN(c2ccc(N3CCOCC3)c(F)c2)C(=O)O1 [linezolid] + O=[N+]([O-])c1cn2c(n1)OC[C@@H](OCc1ccc(OC(F)(F)F)cc1)C2 [pretomanid], the AUC25 [1, 6] is reported as 0.116, the AUC25 [1, 7] is reported as 0.0893 and the AUC25 [1, 8] is reported as 0.0973. It also gave an AUC25 [1, 9] of 0.0643, an AUC25 [1, 10] of 0.13 and an AUC25 [1, 11] of 0.142. For the same molecule, the AUC25 [1, 12] was 0.0977, the AUC25 [1, 13] was 0.111 and the AUC25 [1, 14] was 0.0359. The AUC25 [1, 15] was 0.0385, the AUC25 [1, 16] was 0.0819 and the AUC25 [1, 17] was 0.102. It also gave an AUC25 [1, 18] of 0.123, an Einf [2, 6] of 0.89 and an Einf [2, 7] of 0.984. It also gave an Einf [2, 8] of 0.907, an Einf [2, 9] of 0.947 and an Einf [2, 10] of 0.708. For the same molecule, the Einf [2, 11] was 0.942, the Einf [2, 12] was 0.869 and the Einf [2, 13] was 0.992. The Einf [2, 14] was 0.925, the Einf [2, 15] was 0.991 and the Einf [2, 19] was 0.993. The Einf [2, 16] was 0.971, the Einf [2, 17] was 0.802 and the Einf [2, 18] was 0.951. The FIC90 [3, 7] was 0.246, the FIC90 [3, 8] was 1.47 and the FIC90 [3, 9] was 0.493. The FIC90 [3, 11] was 0.00527, the FIC90 [3, 12] was -0.477 and the FIC90 [3, 13] was 0.311. The FIC90 [3, 14] was 0.509, the FIC90 [3, 15] was 0.232 and the FIC90 [3, 19] was 1.06. For the same molecule, the FIC90 [3, 16] was 0.309, the FIC90 [3, 18] was 0.943 and the GRinf [4, 6] was -0.559. It also gave a GRinf [4, 7] of -0.355, a GRinf [4, 8] of 0.0334 and a GRinf [4, 9] of 0.0161. For the same molecule, the GRinf [4, 10] was -0.103, the GRinf [4, 11] was -0.182 and the GRinf [4, 12] was -0.114. The GRinf [4, 13] was -0.548, the GRinf [4, 14] was 0.0858 and the GRinf [4, 15] was -0.248. The GRinf [4, 19] was -0.54, the GRinf [4, 16] was -0.171 and the GRinf [4, 17] was 0.0728. The GRinf [4, 18] was 0.0215, the FIC50 [5, 6] was 0.583 and the FIC50 [5, 7] was 0.324. It also gave an FIC50 [5, 8] of 0.595, an FIC50 [5, 9] of 0.4 and an FIC50 [5, 10] of -0.367. The FIC50 [5, 11] was -0.293, the FIC50 [5, 12] was -0.451 and the FIC50 [5, 13] was -0.228. For the same molecule, the FIC50 [5, 14] was 0.74, the FIC50 [5, 15] was 0.255 and the FIC50 [5, 16] was 0.34. For the same molecule, the FIC50 [5, 17] was 1.02 and the FIC50 [5, 18] was -0.689.
For COc1c(N2C[C@@H]3CCCN[C@@H]3C2)c(F)cc2c(=O)c(C(=O)O)cn(C3CC3)c12 [moxifloxacin] + CO[C@H]1/C=C/O[C@@]2(C)Oc3c(C)c(O)c4c(O)c(c(/C=N/N5CCN(C6CCCC6)CC5)c(O)c4c3C2=O)NC(=O)/C(C)=C\C=C\[C@H](C)[C@H](O)[C@@H](C)[C@@H](O)[C@@H](C)[C@H](OC(C)=O)[C@@H]1C [rifapentine], the AUC25 [1, 6] was 0.0469, the AUC25 [1, 7] was 0.0544 and the AUC25 [1, 8] was 0.0933. The AUC25 [1, 9] was 0.0734, the AUC25 [1, 10] was 0.131 and the AUC25 [1, 11] was 0.0876. The AUC25 [1, 12] was 0.082, the AUC25 [1, 13] was 0.0641 and the AUC25 [1, 14] was 0.0771. It also gave an AUC25 [1, 15] of 0.0532, an AUC25 [1, 16] of 0.0584 and an AUC25 [1, 17] of 0.0746. The AUC25 [1, 18] was 0.0547, the Einf [2, 6] was 0.776 and the Einf [2, 7] was 0.962. The Einf [2, 8] was 0.893, the Einf [2, 9] was 0.956 and the Einf [2, 10] was 0.594. The Einf [2, 11] was 0.887, the Einf [2, 12] was 0.903 and the Einf [2, 13] was 0.996. The Einf [2, 14] was 0.915, the Einf [2, 15] was 0.985 and the Einf [2, 19] was 0.973. It also gave an Einf [2, 16] of 0.893, an Einf [2, 17] of 0.844 and an Einf [2, 18] of 0.933. It also gave an FIC90 [3, 7] of 0.271, an FIC90 [3, 8] of 0.73 and an FIC90 [3, 9] of 0.586. The FIC90 [3, 11] was 1.32, the FIC90 [3, 12] was -0.159 and the FIC90 [3, 13] was 0.727. The FIC90 [3, 14] was 0.0994, the FIC90 [3, 15] was 0.719 and the FIC90 [3, 19] was 0.684. For the same molecule, the FIC90 [3, 16] was 0.225, the FIC90 [3, 18] was 1.69 and the GRinf [4, 6] was 0.0776. The GRinf [4, 7] was -0.0233, the GRinf [4, 8] was 0.0724 and the GRinf [4, 9] was 0.0272. The GRinf [4, 10] was -0.074, the GRinf [4, 11] was -0.0906 and the GRinf [4, 12] was -0.242. For the same molecule, the GRinf [4, 13] was -0.866, the GRinf [4, 14] was 0.17 and the GRinf [4, 15] was -0.231. It also gave a GRinf [4, 19] of -0.226, a GRinf [4, 16] of 0.0707 and a GRinf [4, 17] of 0.0459. The GRinf [4, 18] was 0.0582, the FIC50 [5, 6] was 0.389 and the FIC50 [5, 7] was 0.463. The FIC50 [5, 8] was 0.555, the FIC50 [5, 9] was 0.515 and the FIC50 [5, 10] was 0.777. The FIC50 [5, 11] was 0.482, the FIC50 [5, 12] was 0.798 and the FIC50 [5, 13] was 0.807. For the same molecule, the FIC50 [5, 14] was 0.269, the FIC50 [5, 15] was 0.72 and the FIC50 [5, 16] was 0.509. For the same molecule, the FIC50 [5, 17] was 0.4 and the FIC50 [5, 18] was 0.541.
